Results: PubChem BioAssay (NCI)
Where “and” joins values, the source holds several entries; their conditions need not be identical. Identical values can stand only once.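 Following 48 hours of exposure in 96-well plates, responses at five concentrations were used to interpolate endpoints linearly. Abbreviation: GI50, concentration required for 50% inhibition of growth. TGI: concentration producing complete growth inhibition.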

Tests used:
Assay in all cases: inhibition of tumour cell growth, NCI panel, 48 h
A549 NSCLC = system: A549 NSCLC
HL-60(TB) leukemia = system: HL-60(TB) leukemia
LOX IMVI melanoma = system: LOX IMVI melanoma
MOLT-4 leukemia = system: MOLT-4 leukemia
OVCAR-5 ovarian = system: OVCAR-5 ovarian
NCI-H23 lung = system: NCI-H23 lung
BT-549 breast = system: BT-549 breast
MCF7 breast = system: MCF7 breast
MDA-MB-435 = system: MDA-MB-435
PC-3 prostate = system: PC-3 prostate

Row | Compound | TGI (A549 NSCLC) | TGI (HL-60(TB) leukemia) | TGI (LOX IMVI melanoma) | TGI (MOLT-4 leukemia) | TGI (OVCAR-5 ovarian) | GI50 (A549 NSCLC) | GI50 (HL-60(TB) leukemia) | GI50 (LOX IMVI melanoma) | GI50 (MOLT-4 leukemia) | GI50 (NCI-H23 lung) | TGI (NCI-H23 lung) | GI50 (OVCAR-5 ovarian) | GI50 (BT-549 breast) | TGI (BT-549 breast) | GI50 (MCF7 breast) | TGI (MCF7 breast) | GI50 (MDA-MB-435) | TGI (MDA-MB-435) | GI50 (PC-3 prostate) | TGI (PC-3 prostate)
1 | N#C/C(=C1\OC(=N)C(c2ccccc2)C1=O)c1ccccc1 (configuration not stated) | > 100 µM | 54.4 µM | 91.5 µM | 74.6 µM | > 100 µM | – | – | – | – | – | – | – | – | – | – | – | – | – | – | –
2 | C/C=C/C(=O)[O-].C/C=C/C(=O)[O-].N.N.N.N.[Co+3].[O-][Cl+3]([O-])([O-])[O-] | > 100 µM | > 100 µM | > 100 µM | > 100 µM | > 100 µM | > 100 µM | > 100 µM | > 100 µM | > 100 µM | > 100 µM | > 100 µM | > 100 µM | – | – | – | – | – | – | – | –
3 | Cc1ccc(N=C2N=C(N3CC(C)OC(C)C3)c3ccccc32)cc1 (configuration not stated) | > 100 µM | – | > 100 µM | 47.8 µM | > 100 µM | – | – | – | – | – | 78.8 µM | – | – | – | – | – | – | – | – | –
4 | [N-]=[N+]=NCCCn1c2c(c3ccc([N+](=O)[O-])cc3c1=O)C(=O)c1cc(-c3ccccc3)ccc1-2 | > 100 µM | – | > 100 µM | – | > 100 µM | > 100 µM | – | > 100 µM | – | > 100 µM | > 100 µM | > 100 µM | > 100 µM | > 100 µM | > 100 µM | > 100 µM | > 100 µM | > 100 µM | > 100 µM | > 100 µM
5 | O=C(N=c1nc(NC(=O)c2ccccc2)ss1)c1ccccc1 | 49.7 µM | 40.6 µM | > 100 µM | > 100 µM | > 100 µM | – | – | – | – | – | 92.5 µM | – | – | – | – | – | – | – | – | –
6 | COc1ccc2c(c1)/C(=C\c1c(-c3cc(OC)ccc3OC)nc3sccn13)C(=O)N2 | > 100 µM | – | 21.5 µM | – | 3.1 µM | 48.6 µM | – | 5.22 µM | – | 1.47 µM | 2.83 µM | 6.65 µM and 1.73 µM | 4.67 µM | – | – | – | 2.05 µM and 14.3 µM | 4.6 µM and 39 µM | 7.97 µM and 2.32 µM | 5.83 µM
